In patent US5750531A, “Pyrimidine derivatives and processes for the preparation thereof” (Yuhan Corporation, priority 1994, dated 1998):
Counter-ions that a name gives are not always drawn.

Legend:
gastric secretion = experiment: Inhibition of gastric secretion (pylorus ligation, Shay method); assay type: in vivo, Male Sprague-Dawley rats; conditions: 20 mg/kg intraduodenally, 5 hours; for Rel. Conc.: acid concentration relative to omeprazole; for Relative Acid Output: acid output relative to omeprazole; for Rel. Vol.: gastric juice volume relative to omeprazole
Summary of the method: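 Rats under ether anaesthesia had the pylorus ligated, and the stomach was removed 5 h later. Gastric juice was centrifuged at 1,000 g, and its volume and acidity were measured. Relative volume, relative acid concentration and relative acid output […] were then calculated.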

[1] = molecular target: proton pump(H^+ /K^+ ATPase); experiment: Inhibition of proton pump(H^+ /K^+ ATPase) activity; assay type: biochemical; conditions: pH 6.0, 37° C., 30 minutes preincubation and 30 minutes reaction; read-out: IC50 Test compound
Summary of the method: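 Enzyme was preincubated with compound at five concentrations for 30 min at 37° C in Tris-HCl pH 6.0 with Mg2+, K+ and NH4Cl. Reaction ran 30 min at 37° C with ATP and was stopped with trichloroacetic acid. K+-stimulated inorganic phosphate release gave IC50 by Litchfield-Wilcoxon.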

H^+ /K^+ -ATPase = experiment: Reversibility Test (Dilution and Washout method, gastric vesicles); assay type: biochemical; conditions: compound 50 μM
Description: Test 3. Reversibility Test
Gastric vesicles were prepared by the same method as in Experiment 4-1 of WO 94/14795. The inhibition mechanism of proton pump activity by the present invention compound was tested in accordance with the so-called Dilution and Washout method [see e.g., D. J. Keeling, et al., Biochemical Pharmacology, 42(1), 123-130(1991)].
Namely, test tubes were divided into two group, Groups 1 and 2. Each group was divided into four subgroups. 90 μl of 5 mM Pipes/Tris buffer(pH 7.4) and 10 μl of DMSO were added to subgroups 1 and 2 of each group. 90 μl of 5 mM Pipes/Tris buffer(pH 7.4) and 10 μl of the compound prepared in Example 43(50 μM) were added to subgroups 3 and 4 of each group. To all two groups, was added 100 μl of lyophilized vesicles at the concentration of 100 μg protein/ml and then preincubated at 37° C. for 15 minutes.
2 mM MgCl2 was added to subgroups 1 and 3 of Group 1. 2 mM MgCl2 and 10 mM KCl were added to subgroups 2 and 4 of Group 1. 3 mM ATP was added to all subgroups of Group 1 until the final volume became 500 μl. After incubation for 30 minutes, the inhibition of H^+ /K^+ -ATPase activity by the test compound was measured.
After preincubation as described above, each subgroup of Group 2 was diluted with 50-fold volume of 5 mM Pipes/Tris buffer(pH7.4) and then centrifuged for 60 minutes by means of Beckman ultracentrifuge(Model L8-80). The supernatant was discarded and washed out by 10 ml of 5 mM Pipes/Tris buffer(ph 7.4). The resulting pellet was suspended with 5 mM Pipes/Tris buffer (pH7.4) until the volume became the same as the preincubation volume.
Thereafter, in accordance with the treatment to Group 1, each subgroup of Group 2 was treated with 2 mM MgCl2, 10 mM KCl and 3 mM ATP. And the final volume of each subgroup of Group 2 was made to be 500 μl.
And it was further measured in accordance with the same procedures as above, except the compound prepared in Example 75 was used as a test compound.

proton pump = conditions: in words, background; cited from earlier work

SMILES	IC50 [1] [nM]	inhibition of H^+ /K^+ ATPase activity, after Dilution & Washout (H^+ /K^+ -ATPase) [%]	inhibition of H^+ /K^+ ATPase activity, before Dilution & Washout (H^+ /K^+ -ATPase) [%]	Rel. Conc. (gastric secretion)	Relative Acid Output (gastric secretion)	Rel. Vol. (gastric secretion)	reversibility of proton pump inhibition (proton pump)
Cc1nc(N(C)c2ccccc2)nc(N2CCc3ccccc3C2)c1C.Cl [Example 43, 5,6-dimethyl-2-(N-methylphenylamino)-4-(1,2,3,4-tetrahydroisoquinolin-2-yl)pyrimidine hydrochloride]	500	6	62	0.59	0.82	0.7	–
Cc1cc(F)ccc1Nc1nc(N2CCc3ccccc3C2)nc(C)c1C.Cl [Example 74, 5,6-dimethyl-4-(2-methyl-4-fluorophenylamino)-2-(1,2,3,4-tetrahydroisoquinolin-2-yl)pyrimidine hydrochloride]	500	–	–	1.49	1.16	1.22	–
Cc1nc(N2CCc3ccccc3C2)nc(Nc2ccc(F)cc2)c1C.Cl [Example 75, 5,6-dimethyl-4-(4-fluorophenylamino)-2-(1,2,3,4-tetrahydroisoquinolin-2-yl)pyrimidine hydrochloride]	1200	15	66.6	1.62	1.20	1.3	–
Cc1cc(F)ccc1Nc1nc(N2CCc3ccsc3C2C)nc(C)c1C.Cl (stereo not shown) [Example 77, 5,6-dimethyl-4-(2-methyl-4-fluorophenylamino)-2-(7-methyl-4,5,6,7-tetrahydrothieno[2,3-c]pyridin-6-yl)pyrimidine hydrochloride]	3600	–	–	1.63	1.30	1.48	–
COc1ccc2[nH]c([S+]([O-])Cc3ncc(C)c(OC)c3C)nc2c1 (stereo not shown) [Omeprazole, omeprazole, reference compound]	–	–	–	–	–	–	irreversible

More lines, main results first:

IC50 [1] [nM]	inhibition of H^+ /K^+ ATPase activity, after Dilution & Washout (H^+ /K^+ -ATPase) [%]	inhibition of H^+ /K^+ ATPase activity, before Dilution & Washout (H^+ /K^+ -ATPase) [%]	SMILES	Rel. Conc. (gastric secretion)	Relative Acid Output (gastric secretion)	Rel. Vol. (gastric secretion)	reversibility of proton pump inhibition (proton pump)
8500	–	–	Cc1nc(N2CCc3ccsc3C2C)nc(Nc2ccc(F)cc2)c1C.Cl (stereo not shown) [Example 78, 5,6-dimethyl-2-(7-methyl-4,5,6,7-tetrahydrothieno[2,3-c]pyridin-6-yl)-4-(4-fluorophenylamino)pyrimidine hydrochloride]	1.75	1.09	1.06	–
400	–	–	Cc1cc(F)ccc1Nc1nc(N2CCc3ccccc3C2C)nc2c1CCC2 (stereo not shown) [Example 81, hydrochloride]	0.47	0.68	0.56	–
1100	–	–	Cc1cc(F)ccc1Nc1nc(N2CCc3ccccc3C2C)nc2c1CCCC2.Cl (stereo not shown) [Example 82, 4-(2-Methyl-4-fluorophenylamino)-2-(1-methyl-1,2,3,4-tetrahydroisoquinolin-2-yl)-5,6,7,8-tetrahydroquinazoline hydrochloride]	0.59	0.79	0.69	–
1400	–	–	Cc1cc(F)ccc1Nc1nc(N2CCc3ccccc3C2)nc2c1CCCC2.Cl [Example 83, 4-(2-methyl-4-fluorophenylamino)-2-(1,2,3,4-tetrahydroisoquinolin-2-yl)-5,6,7,8-tetrahydroquinazoline hydrochloride]	1.29	1.13	1.19	–
